Measurements: PubChem BioAssay (NCI)
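A five-concentration, 48-hour dose response in 96-well plates underlies each endpoint, interpolated linearly between surrounding concentrations. Abbreviation: GI50, concentration required for 50% inhibition of growth. TGI is the concentration that stops growth completely.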

Tests used:
Experiment in all cases: NCI tumour cell line growth inhibition, 48 h
[1] = tested on: SR leukemia
[2] = tested on: NCI/ADR-RES ovarian
[3] = tested on: ACHN renal
[4] = tested on: TK-10 renal
[5] = tested on: MALME-3M melanoma
[6] = tested on: BT-549 breast
[7] = tested on: LOX IMVI melanoma
[8] = tested on: MDA-MB-231 breast
[9] = tested on: SN12C renal
[10] = tested on: SK-OV-3 ovarian
[11] = tested on: KM12 colon
[12] = tested on: SF-295 CNS
[13] = tested on: HCC-2998 colon
[14] = tested on: NCI-H460 lung
[15] = tested on: HCT-116 colon
[16] = tested on: HS 578T breast
[17] = tested on: SF-268 CNS
[18] = tested on: K-562 leukemia
[19] = tested on: SK-MEL-28 melanoma
[20] = tested on: SNB-75 CNS
[21] = tested on: U251 CNS
[22] = tested on: HCT-15 colon
[23] = tested on: SNB-19 CNS
[24] = tested on: MOLT-4 leukemia
[25] = tested on: NCI-H226 lung
[26] = tested on: MDA-MB-435
[27] = tested on: CCRF-CEM leukemia
[28] = tested on: M14 melanoma
[29] = tested on: A549 NSCLC

OCc1ccc(N(Cc2ccc(F)cc2)CC2CC2)cc1Cl
TGI [1]: 34 µM | GI50 [2]: 12.1 µM | TGI [2]: 28.8 µM | GI50 [3]: 11.7 µM | TGI [3]: 24 µM | GI50 [4]: 60.9 nM | TGI [4]: 398 nM | GI50 [5]: 14.6 µM | TGI [5]: 29.9 µM | GI50 [6]: 14.3 µM | TGI [6]: 28.2 µM | GI50 [7]: 13.2 µM | TGI [7]: 26.3 µM | GI50 [8]: 11.5 µM | TGI [8]: 24.3 µM | GI50 [9]: 9.04 µM | TGI [9]: 21.8 µM | GI50 [10]: 10.6 µM | TGI [10]: 22.7 µM | GI50 [11]: 12.9 µM | TGI [11]: 25.8 µM | GI50 [12]: 1200 nM | TGI [12]: 11.7 µM | GI50 [13]: 8.82 µM | TGI [13]: 22.4 µM | GI50 [14]: 570 nM | TGI [14]: 9.47 µM | GI50 [15]: 254 nM | TGI [15]: 11 µM | GI50 [16]: 14.7 µM | TGI [16]: 38.9 µM | GI50 [17]: 14.7 µM | TGI [17]: 28.7 µM | GI50 [18]: 3.12 µM | TGI [18]: 17.8 µM | GI50 [19]: 13.1 µM | TGI [19]: 25.9 µM | GI50 [20]: 10.8 µM | TGI [20]: 23.1 µM | GI50 [21]: 1480 nM | TGI [21]: 14 µM | GI50 [22]: 10.3 µM | TGI [22]: 22.9 µM | GI50 [23]: 12.3 µM | TGI [23]: 25.4 µM | GI50 [24]: 13.7 µM | TGI [24]: 34.9 µM | GI50 [25]: 41.9 nM | TGI [25]: 94.3 nM | GI50 [26]: 15.7 µM | TGI [26]: 31.2 µM | GI50 [27]: 15.6 µM | TGI [27]: 39.9 µM | GI50 [28]: 14.5 µM | TGI [28]: 29.8 µM | GI50 [29]: 3.16 µM | TGI [29]: 16.9 µM
